The nature of one data set: Water solubility. From the text:
HCl, phosphoric acid, tartaric acid, acetic acid, D-glucoronic acid and succinic acid were used to prepare pharmaceutically acceptable salts of compound 3.

The nature of data set [1]: Solubility in organic solvents / group 3 solvents. In kind it is physicochemical.

In the case of `CC(=O)O.COc1ccc(-c2ccnc(Nc3ccc(S(=O)(=O)NCCCN(C)C)cc3)n2)cc1F` [acetate salt of compound 3], in the data set “Water solubility” (water), the solubility (commonly the concentration that dissolves in the medium under given conditions) is 3500 µg/mL.

In the case of `COc1ccc(-c2ccnc(Nc3ccc(S(=O)(=O)NCCCN(C)C)cc3)n2)cc1F` [compound 3], the “solubility in THF, DMSO and DMF” value in data set [1] (THF, DMSO and DMF) is on record as “high”. For the same compound, the “solubility in group 3 solvents, including water” value in data set [1] (group 3 solvents, including water) is “low”. In the data set “Water solubility” (by a thermogravimeteric method), the Solubility in water result is reported as “not detectable”. Also, the “water solubility (in words)” value in the data set “Water solubility” (free base form, general statement) is “little to no”.
